Laboratory results reported in US9096615B2, “Bridged bicyclic amino thiazine dioxide compounds as inhibitors of beta-secretase and methods of use thereof” (AMGEN INC., priority 2013, dated 2015).

Legend:
Assay type in all cases: biochemical
[1] = target: BACE1 (Homo sapiens, UniProt P56817); assay: In vitro enzymatic BACE FRET assay; details: average IC50; read-out: BACE1 Enzyme assay IC50
Outline: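 BACE (0.2 nM) pre-incubated 1 h with serially diluted inhibitor in 0.05 M acetate pH 4.2, 10% DMSO, 100 uM genapol; 50 nM FRET peptide substrate added, 1 h incubation. Stopped with Tris to neutral pH; fluorescence read (ex 488, […]).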

[2] = target: T1, Cathepsin D (Cat D) (Homo sapiens, UniProt P07339); assay: In vitro enzymatic Cathepsin D (Cat D) FRET assay; details: average IC50; first procedure; read-out: CatD IC50
T1 construct: made in house; host or cells: CHO cells
Outline: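 Recombinant human Cat D expressed in CHO cells, 9 nM, pre-incubated 1 h with inhibitor in 0.05 M citrate pH 3.5, 10% DMSO, 5 mM CHAPS. Reaction started with 20 nM FRET peptide substrate, run 1 h, stopped with Tris to neutral pH; fluorescence read at ex 500/em 580 nm.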

[3] = target: T2, human Bace2 protein (Homo sapiens, UniProt Q9Y5Z0); assay: In vitro enzymatic BACE2 FRET assay; details: average IC50; read-out: BACE2 Enzyme assay IC50
T2 construct: V5 (C); 6-His (C)
T2 sequence (Q9Y5Z0 63-518): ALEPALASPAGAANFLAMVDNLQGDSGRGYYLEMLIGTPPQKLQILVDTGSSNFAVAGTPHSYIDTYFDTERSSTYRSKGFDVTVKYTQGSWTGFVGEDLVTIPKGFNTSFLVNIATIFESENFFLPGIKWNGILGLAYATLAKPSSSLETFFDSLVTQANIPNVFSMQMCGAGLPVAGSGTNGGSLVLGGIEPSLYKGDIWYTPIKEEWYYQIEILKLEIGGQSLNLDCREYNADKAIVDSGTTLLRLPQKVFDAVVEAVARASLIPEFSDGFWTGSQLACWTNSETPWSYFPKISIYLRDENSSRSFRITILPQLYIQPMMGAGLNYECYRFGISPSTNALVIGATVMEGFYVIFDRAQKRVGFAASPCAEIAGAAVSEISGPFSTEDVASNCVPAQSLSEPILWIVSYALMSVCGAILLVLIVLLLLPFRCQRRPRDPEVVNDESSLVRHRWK
Outline: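 Human Bace2 with C-terminal V5/6-His tag (0.2 nM) pre-incubated 1 h with inhibitor in 0.05 M acetate pH 4.2, 10% DMSO, 100 uM genapol; reaction started with 50 nM FRET peptide substrate, run 1 h. Stopped with Tris to neutral pH; fluorescence increase from substrate cleavage measured.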

Chain of BACE1 (P56817 46-501, species assumed): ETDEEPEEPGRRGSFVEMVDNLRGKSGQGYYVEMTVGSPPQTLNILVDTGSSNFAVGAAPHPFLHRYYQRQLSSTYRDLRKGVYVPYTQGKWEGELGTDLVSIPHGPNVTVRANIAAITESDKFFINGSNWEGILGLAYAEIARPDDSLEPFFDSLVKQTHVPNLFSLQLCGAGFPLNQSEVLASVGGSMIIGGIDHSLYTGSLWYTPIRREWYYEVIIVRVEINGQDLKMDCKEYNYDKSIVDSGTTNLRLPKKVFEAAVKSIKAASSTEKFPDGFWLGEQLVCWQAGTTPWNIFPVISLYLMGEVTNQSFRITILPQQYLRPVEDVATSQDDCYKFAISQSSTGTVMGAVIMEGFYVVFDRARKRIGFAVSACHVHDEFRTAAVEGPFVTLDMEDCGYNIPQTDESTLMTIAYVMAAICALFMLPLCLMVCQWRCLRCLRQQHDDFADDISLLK
T1 sequence (P07339 65-412, species assumed): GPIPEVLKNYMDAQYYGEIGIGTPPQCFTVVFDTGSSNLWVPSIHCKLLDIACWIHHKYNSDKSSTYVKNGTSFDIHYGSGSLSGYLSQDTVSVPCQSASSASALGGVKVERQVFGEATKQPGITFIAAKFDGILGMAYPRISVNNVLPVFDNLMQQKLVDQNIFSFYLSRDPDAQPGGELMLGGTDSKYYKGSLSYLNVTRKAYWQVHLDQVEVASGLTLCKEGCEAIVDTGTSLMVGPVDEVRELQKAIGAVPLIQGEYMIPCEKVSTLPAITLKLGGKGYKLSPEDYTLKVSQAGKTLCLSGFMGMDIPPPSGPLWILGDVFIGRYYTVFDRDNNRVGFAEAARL

Row | IC50 [1] | IC50 [2] | IC50 [3] | SMILES
1 | 0.006 µM | 965 µM | 0.051 µM | COc1cnc2c(Nc3ccc(F)c([C@@]4(C)N=C(N)[C@@]5(C)CC[C@@H]4S5(=O)=O)c3)ncnc2c1 [Example 132, N-(3-((1S,2R,5R)-4-amino-2,5-dimethyl-8,8-dioxido-8-thia-3-azabicyclo[3.2.1]oct-3-en-2-yl)-4-fluorophenyl)-7-methoxypyrido[3,2-d]pyrimidin-4-amine]
2 | 0.001 µM | 855 µM | 0.02 µM | C[C@]1(c2cc(Nc3nccc4nc(OCc5ncco5)cnc34)ccc2F)N=C(N)[C@@]2(C)CC[C@@H]1S2(=O)=O [Example 140, N-(3-((1S,2R,5R)-4-amino-2,5-dimethyl-8,8-dioxido-8-thia-3-azabicyclo[3.2.1]oct-3-en-2-yl)-4-fluorophenyl)-2-(1,3-oxazol-2-ylmethoxy)pyrido[3,4-b]pyrazin-5-amine]
